Test results: PubChem BioAssay AID192 (DTP/NCI, 2004)
Where “and” joins values, the source holds several entries; their conditions need not be identical. Equal entries are not always repeated. Toxic doses and inconclusive results are not listed.

Tested on: BDF1 mice, B16 melanoma ip, median survival T/C
Test: NCI In Vivo Anticancer Drug Screen. Data for tumor model B16 Melanoma (intraperitoneal) in B6D2F1 (BDF1) mice
Details: endpoint: median survival time, higher = longer survival
Outline: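 Vehicle-treated animals serve as the reference (C); treated animals (T) are scored for survival or tumor size after tumor transplantation.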

[1] = dose: 100.0 mg/kg/injection, schedule: Q01DX009 (ip), vehicle: Klucel (hydroxypropylcellulose) (HPC)
[2] = dose: 200.0 mg/kg/injection, schedule: Q01DX009 (ip), vehicle: Klucel (hydroxypropylcellulose) (HPC)
[3] = dose: 25.0 mg/kg/injection, schedule: Q01DX009 (ip), vehicle: saline with Tween-80
[4] = dose: 50.0 mg/kg/injection, schedule: Q01DX009 (ip), vehicle: saline with Tween-80
[5] = dose: 100.0 mg/kg/injection, schedule: Q01DX009 (ip), vehicle: saline with Tween-80
[6] = dose: 6.25 mg/kg/injection, schedule: Q01DX009 (ip), vehicle: saline
[7] = dose: 12.5 mg/kg/injection, schedule: Q01DX009 (ip), vehicle: saline
[8] = dose: 1.5 mg/kg/injection, schedule: Q01DX009 (ip), vehicle: saline
[9] = dose: 3.0 mg/kg/injection, schedule: Q01DX009 (ip), vehicle: saline
[10] = dose: 3.12 mg/kg/injection, schedule: Q01DX009 (ip), vehicle: saline
[11] = dose: 25.0 mg/kg/injection, schedule: Q01DX009 (ip), vehicle: saline
[12] = dose: 50.0 mg/kg/injection, schedule: Q01DX009 (ip), vehicle: saline
[13] = dose: 100.0 mg/kg/injection, schedule: Q01DX009 (ip), vehicle: saline
[14] = dose: 25.0 mg/kg/injection, schedule: Q01DX009 (ip), vehicle: Klucel (hydroxypropylcellulose) (HPC)
[15] = dose: 50.0 mg/kg/injection, schedule: Q01DX009 (ip), vehicle: Klucel (hydroxypropylcellulose) (HPC)
[16] = dose: 12.5 mg/kg/injection, schedule: Q01DX009 (ip), vehicle: Klucel (hydroxypropylcellulose) (HPC)
[17] = dose: 12.5 mg/kg/injection, schedule: Q01DX009 (ip), vehicle: saline with Tween-80

Cc1cc(Cl)ccc1NC(=O)Nc1ccccc1Cl
T/C (dose: 18.8 mg/kg/injection, schedule: Q01DX009 (ip), vehicle: Klucel (hydroxypropylcellulose) (HPC)): 104 % of control | T/C (dose: 37.5 mg/kg/injection, schedule: Q01DX009 (ip), vehicle: Klucel (hydroxypropylcellulose) (HPC)): 91 % of control | T/C (dose: 75.0 mg/kg/injection, schedule: Q01DX009 (ip), vehicle: Klucel (hydroxypropylcellulose) (HPC)): 94 % of control

COc1ccc(-c2nc3cc(Cl)ccc3c(=O)o2)cc1
T/C [1]: 101 % of control | T/C [2]: 115 % of control

O=c1[nH]c2cc(Cl)ccc2c(CCl)c1Cl
T/C [3]: 88 % of control and 95 % of control | T/C [4]: 88 % of control and 95 % of control | T/C [5]: 93 % of control and 100 % of control

CN(C)CCC(=O)c1ccccc1
T/C [6]: 105 % of control | T/C [7]: 105 % of control

O=C(CCN1CC1)OCCOC(=O)CCN1CC1
T/C [8]: 118 % of control | T/C [9]: 110 % of control

CN(C)CCCN1c2ccccc2Sc2ccc(Cl)cc21
T/C (dose: 1.0 mg/kg/injection, schedule: Q01DX009 (ip), vehicle: saline): 101 % of control | T/C (dose: 2.0 mg/kg/injection, schedule: Q01DX009 (ip), vehicle: saline): 111 % of control and 93 % of control | T/C (dose: 4.0 mg/kg/injection, schedule: Q01DX009 (ip), vehicle: saline): 110 % of control and 100 % of control | T/C (dose: 8.0 mg/kg/injection, schedule: Q01DX009 (ip), vehicle: saline): 92 % of control and 102 % of control | T/C (dose: 12.5 mg/kg/injection, schedule: Q01DX009 (ip), vehicle: alkali diluted with saline): 100 % of control | T/C (dose: 12.5 mg/kg/injection, schedule: Q01DX009 (ip), vehicle: saline sonified): 97 % of control | T/C (dose: 16.0 mg/kg/injection, schedule: Q01DX009 (ip), vehicle: saline): 94 % of control | T/C (dose: 25.0 mg/kg/injection, schedule: Q01DX009 (ip), vehicle: alkali diluted with saline): 92 % of control | T/C (dose: 25.0 mg/kg/injection, schedule: Q01DX009 (ip), vehicle: saline sonified): 90 % of control | T/C (dose: 32.0 mg/kg/injection, schedule: Q01DX009 (ip), vehicle: saline): 92 % of control | T/C (dose: 64.0 mg/kg/injection, schedule: Q01DX009 (ip), vehicle: saline): 87 % of control

Cc1ccc(Cl)cc1NC(=O)c1ccc([N+](=O)[O-])cc1
T/C [3]: 112 % of control | T/C [4]: 110 % of control | T/C [5]: 96 % of control

CC(N)Cc1ccccc1 (centres undefined)
T/C [10]: 105 % of control | T/C [6]: 100 % of control | T/C [7]: 105 % of control | T/C [11]: 97 % of control | T/C [12]: 97 % of control | T/C [13]: 95 % of control

NC(=O)NC1CCCCCCC1
T/C [5]: 100 % of control | T/C (dose: 200.0 mg/kg/injection, schedule: Q01DX009 (ip), vehicle: saline with Tween-80): 93 % of control | T/C (dose: 400.0 mg/kg/injection, schedule: Q01DX009 (ip), vehicle: saline with Tween-80): 104 % of control

Cc1cc(C)[nH]c(=S)n1
T/C [12]: 95 % of control | T/C [13]: 95 % of control | T/C (dose: 200.0 mg/kg/injection, schedule: Q01DX009 (ip), vehicle: saline): 106 % of control

COc1c(C(C)(C)C)cc([N+](=O)[O-])c(C)c1[N+](=O)[O-]
T/C (dose: 100.0 mg/kg/injection, schedule: Q04DX003 (ip), vehicle: Klucel (hydroxypropylcellulose) (HPC)): 100 % of control | T/C (dose: 200.0 mg/kg/injection, schedule: Q04DX003 (ip), vehicle: Klucel (hydroxypropylcellulose) (HPC)): 96 % of control | T/C (dose: 400.0 mg/kg/injection, schedule: Q04DX003 (ip), vehicle: Klucel (hydroxypropylcellulose) (HPC)): 87 % of control

CN1CCC=C(C(=O)N2c3ccccc3Sc3ccc(Cl)cc32)C1
T/C [6]: 96 % of control | T/C [7]: 89 % of control

CC#CS(=O)(=O)C(C)(C)C
T/C (dose: 50.0 mg/kg/injection, schedule: Q04DX003 (ip), vehicle: saline): 104 % of control | T/C (dose: 100.0 mg/kg/injection, schedule: Q04DX003 (ip), vehicle: saline): 106 % of control | T/C (dose: 200.0 mg/kg/injection, schedule: Q04DX003 (ip), vehicle: saline): 105 % of control

CC1C2CCC(C2)C1C(=O)O (centres undefined)
T/C (dose: 100.0 mg/kg/injection, schedule: Q04DX003 (ip), vehicle: other): 102 % of control | T/C (dose: 200.0 mg/kg/injection, schedule: Q04DX003 (ip), vehicle: other): 102 % of control | T/C (dose: 400.0 mg/kg/injection, schedule: Q04DX003 (ip), vehicle: other): 89 % of control

CCCCOC(=O)C1C(C(=O)OCCCC)C2(Cl)C(Cl)=C(Cl)C1(Cl)C2(Cl)Cl (centres undefined)
T/C [1]: 114 % of control | T/C [2]: 116 % of control | T/C (dose: 400.0 mg/kg/injection, schedule: Q01DX009 (ip), vehicle: Klucel (hydroxypropylcellulose) (HPC)): 113 % of control

O=C(CBr)CC(O)(C(F)(F)F)C(F)(F)F
T/C (dose: 0.75 mg/kg/injection, schedule: Q01DX009 (ip), vehicle: saline): 100 % of control | T/C (dose: 0.75 mg/kg/injection, schedule: Q04DX003 (ip), vehicle: saline): 97 % of control | T/C [8]: 105 % of control | T/C (dose: 1.5 mg/kg/injection, schedule: Q04DX003 (ip), vehicle: saline): 100 % of control | T/C [9]: 94 % of control | T/C (dose: 3.0 mg/kg/injection, schedule: Q04DX003 (ip), vehicle: saline): 100 % of control and 105 % of control

C[C@@H]1C(=O)C[C@H]2C(C)(C)CCC[C@]2(C)[C@@]1(O)CCc1ccoc1
T/C [14]: 99 % of control | T/C [15]: 89 % of control | T/C [1]: 93 % of control | T/C [2]: 86 % of control

CCC(=O)NC(CC(C)C)C(=O)NC(CC(C)C)C(=O)NC(C=O)CCCN=C(N)N (centres undefined) (tested in a mixture with another compound)
T/C [7]: 100 % of control and 105 % of control | T/C [11]: 94 % of control and 105 % of control | T/C [12]: 99 % of control and 105 % of control | T/C [13]: 108 % of control and 120 % of control

CC(C)=CN1CCOCC1
T/C [14]: 94 % of control | T/C [15]: 100 % of control | T/C [1]: 94 % of control

O=C(O)/C=C/C(=O)NCc1ccco1
T/C [1]: 102 % of control | T/C [2]: 86 % of control

CS(=O)(=O)OCCCCOS(C)(=O)=O
T/C (dose: 3.13 mg/kg/injection, schedule: Q01DX009 (ip), vehicle: saline): 108 % of control | T/C [6]: 105 % of control | T/C [16]: 106 % of control and 107 % of control | T/C [17]: 97 % of control and 100 % of control and 102 % of control | T/C [7]: 95 % of control and 105 % of control

O=[N+]([O-])c1ccc(C2OC2c2ccccc2)cc1 (centres undefined)
T/C (dose: 9.38 mg/kg/injection, schedule: Q01DX009 (ip), vehicle: saline with Tween-80): 100 % of control | T/C [16]: 103 % of control | T/C (dose: 18.7 mg/kg/injection, schedule: Q01DX009 (ip), vehicle: saline with Tween-80): 105 % of control | T/C (dose: 37.5 mg/kg/injection, schedule: Q01DX009 (ip), vehicle: saline with Tween-80): 97 % of control | T/C [15]: 100 % of control | T/C (dose: 75.0 mg/kg/injection, schedule: Q01DX009 (ip), vehicle: saline with Tween-80): 102 % of control | T/C (dose: 150.0 mg/kg/injection, schedule: Q01DX009 (ip), vehicle: saline with Tween-80): 97 % of control

Cc1cccc2c(C(=O)O)cc(-c3ccc(Cl)cc3)nc12
T/C [17]: 97 % of control | T/C [3]: 97 % of control | T/C [4]: 95 % of control

COc1ccc(NC(=O)Nc2ccccc2F)cc1
T/C [1]: 97 % of control | T/C [2]: 97 % of control

CCCCN(CCCC)C(=O)c1[nH]cnc1/N=N\N(C)C
T/C (dose: 12.5 mg/kg/injection, schedule: Q04DX003 (ip), vehicle: saline with Tween-80): 110 % of control | T/C (dose: 25.0 mg/kg/injection, schedule: Q04DX003 (ip), vehicle: saline with Tween-80): 92 % of control | T/C (dose: 50.0 mg/kg/injection, schedule: Q04DX003 (ip), vehicle: saline with Tween-80): 117 % of control | T/C (dose: 100.0 mg/kg/injection, schedule: Q04DX003 (ip), vehicle: saline with Tween-80): 93 % of control

ClCCCN1CCCCC1CCl (centres undefined)
T/C [10]: 111 % of control | T/C (dose: 3.12 mg/kg/injection, schedule: Q04DX003 (ip), vehicle: saline): 105 % of control | T/C (dose: 6.25 mg/kg/injection, schedule: Q04DX003 (ip), vehicle: saline): 116 % of control | T/C (dose: 8.33 mg/kg/injection, schedule: Q01DX009 (ip), vehicle: water): 155 % of control and 159 % of control | T/C [7]: 176 % of control | T/C (dose: 12.5 mg/kg/injection, schedule: Q01DX009 (ip), vehicle: water): 185 % of control and 192 % of control

CN(C)c1ccc(C(N)=O)cn1
T/C (dose: 1.5 mg/kg/injection, schedule: Q01DX009 (ip), vehicle: Klucel (hydroxypropylcellulose) (HPC)): 124 % of control
